Results: BindingDB's records for doi:10.1016/j.ejmech.2019.01.044 (Institute of Agricultural and Food Biotechnology, 2019)

Biological target: T1, Proteasome subunit beta type-5 (Rattus norvegicus, UniProt P28075)
T1 sequence (P28075 whole entry): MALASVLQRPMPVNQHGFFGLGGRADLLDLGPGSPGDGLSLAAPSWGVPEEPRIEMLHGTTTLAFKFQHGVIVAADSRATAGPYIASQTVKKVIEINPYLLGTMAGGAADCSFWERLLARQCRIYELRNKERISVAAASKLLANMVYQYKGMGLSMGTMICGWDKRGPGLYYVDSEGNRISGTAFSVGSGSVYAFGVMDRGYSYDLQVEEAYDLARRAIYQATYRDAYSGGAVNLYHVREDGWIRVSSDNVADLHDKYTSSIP
Test: Inhibition of chymotrypsin-like activity of rat liver 26 proteasome assessed as decrease in fluorescence using succinyl-Leu-Leu-Val-Tyr-4-methylcoumaryl-7-amide as substrate preincubated for 30 mins followed by addition of substrate and measured after 1 hr by fluorescence based method

C=CC(/C=C\c1ccc(O)cc1)c1ccc(O)cc1 (centres undefined)
IC50: 71.3 nM

COc1cc(O)c(C(=O)c2ccc(O)cc2)c(O)c1
IC50: > 960 nM

Oc1ccc(CC2COc3cc(O)ccc3C2)cc1 (centres undefined)
IC50: 234 nM

COc1cc(O)ccc1CCCc1ccc(O)cc1 [BROUSSONIN B]
IC50: 178 nM
